Data published in US12365687B2 (Hoffmann-La Roche Inc., priority 2021, dated 2025).

Legend:
[1] = biological target: human GABAA α5β2γ1 receptor (Homo sapiens (Human), UniProt P31644+Q8N1C3); test: Radioligand binding assay for γ1-containing GABAA subtypes, [3H]RO7239181 competition (α5β2γ1)
[2] = biological target: human GABAA α2β2γ1 receptor (Homo sapiens (Human), UniProt P47869+Q8N1C3); test: Radioligand binding assay for γ1-containing GABAA subtypes, [3H]RO7239181 competition (α2β2γ1)
[3] = biological target: human GABAA α1β3γ2 receptor (Homo sapiens (Human), UniProt P14867+P18507); test: Radioligand binding assay for γ2-containing GABAA subtypes, [3H]Flumazenil competition (α1β3γ2); details: for γ2/γ1 Selectivity Ratio: Ki α1β3γ2 (nM)/Ki α2β2γ1 (nM); for LogSel: Log[Ki α1β3γ2 (nM)/Ki α2β2γ1 (nM)]
[4] = biological target: α2β2γ1 GABAA receptor subtype (Homo sapiens (Human), UniProt P47869+Q8N1C3); test: Two-electrode voltage clamp electrophysiology in Xenopus oocytes expressing GABAA receptors (modulation of GABA EC20 current); type: cell-based; details: for Efficacy (GABA)%: % modulation of GABA EC20 = 100*(Fold increase-1), α2β2γ1 oocytes, compound at approx. 30-fold Ki; for Fold increase h-GABA-A α2β2γ1 oocyte @ 30-fold Ki: Xenopus oocytes expressing α2β2γ1, compound at approx. 30-fold its Ki α2β2γ1, GABA EC20 current
Outline: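 Each concentration was tested on ≥3 oocytes held at −80 mV at room temperature, recorded 3-5 days post-injection. A control and a test response to EC20 GABA (1.5 min each) were superimposed and their point-by-point ratio taken. Peak ratio reported as % modulation of GABA EC20 = 100×(fold increase−1).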

[5] = Ki h-GABAA α2β2γ1, [3H]RO7239181 competition binding, human GABAA α2β2γ1
[6] = Ki h-GABAA α2β2γ1, displacement of [3H]RO7239181, membranes of HEK293F cells expressing human receptors, means of two determinations

SMILES | Ki [1] [nM] | Ki [2, 5] [nM] | Ki [2, 6] [nM] | Ki [3] [nM] | γ2/γ1 Selectivity Ratio [3] | LogSel [3] | Efficacy (GABA)% [4] [%] | Fold increase h-GABA-A α2β2γ1 oocyte @ 30-fold Ki [4]
[2H]C([2H])([2H])NC(=O)c1nc2n(n1)-c1ccc(C(F)(F)F)c(Cl)c1C(c1c(F)cccc1F)=N[C@H]2C [Example 34, (4S)-7-chloro-6-(2,6-difluorophenyl)-4-methyl-N-(trideuteriomethyl)-8-(trifluoromethyl)-4H-[1,2,4]triazolo[1,5-a][1,4]benzodiazepine-2-carboxamide] | 2.11 | 14.3 | 14.3 | 2180 | 152.4 | 2.18 | 71 | 1.71
COC1CN(C(=O)Nc2nc3n(n2)-c2ccc(Cl)c(Cl)c2C(c2c(F)cccc2F)=N[C@H]3C)C1 [Example 60, 3-methoxy-N-[(4S)-7,8-dichloro-6-(2,6-difluorophenyl)-4-methyl-4H-[1,2,4]triazolo[1,5-a][1,4]benzodiazepin-2-yl]azetidine-1-carboxamide] | 1.49 | 12.3 | 12.3 | 602 | 49.1 | 1.69 | 107 | 2.07
C[C@@H]1N=C(c2c(F)cccc2F)c2c(ccc(Cl)c2Cl)-n2nc(C(F)F)nc21 [Example 18] | 0.69 | 11.9 | 11.9 | 437 | 36.8 | 1.57 | 70 | 1.70
Cc1cnc2n1-c1ccc(C(F)(F)F)c(Cl)c1C(c1c(F)cccc1F)=N[C@H]2C [Example 115, (4S)-7-chloro-6-(2,6-difluorophenyl)-1,4-dimethyl-8-(trifluoromethyl)-4H-imidazo[1,2-a][1,4]benzodiazepine] | 2.63 | 12.3 | 12.3 | 827 | 67.4 | 1.83 | 49 | 1.49
C[C@@H]1N=C(c2ncccc2F)c2c(ccc(C(F)(F)F)c2Cl)-n2cc(C(=O)NCCO)nc21 [Example 141, (4S)-7-chloro-6-(3-fluoro-2-pyridyl)-N-(2-hydroxyethyl)-4-methyl-8-(trifluoromethyl)-4H-imidazo[1,2-a][1,4]benzodiazepine-2-carboxamide] | 12.4 | 55.9 | 55.9 | 12200 | 218.4 | 2.34 | 112 | 2.12
CCNC(=O)c1nc2n(n1)-c1ccc(Cl)c(Cl)c1C(c1c(F)cccc1F)=N[C@H]2C [Example 64, (4S)-7,8-dichloro-6-(2,6-difluorophenyl)-N-ethyl-4-methyl-4H-[1,2,4]triazolo[1,5-a][1,4]benzodiazepine-2-carboxamide] | 1.16 | 5.4 | 5.4 | 889 | 165.6 | 2.22 | 75 | 1.75
C[C@@H]1N=C(c2c(F)cccc2F)c2c(ccc(Cl)c2Cl)-n2nc(C(N)=O)nc21 [Example 35, (4S)-7,8-dichloro-6-(2,6-difluorophenyl)-4-methyl-4H-[1,2,4]triazolo[1,5-a][1,4]benzodiazepine-2-carboxamide] | 0.73 | 6.5 | 6.53 | 778 | 119.1 | 2.08 | 67 | 1.67
COC1CN(C(=O)c2nc3n(n2)-c2ccc(C(F)(F)F)c(Cl)c2C(c2c(F)cccc2F)=NC3)C1 [Example 37, [7-chloro-6-(2,6-difluorophenyl)-8-(trifluoromethyl)-4H-[1,2,4]triazolo[1,5-a][1,4]benzodiazepin-2-yl]-(3-methoxyazetidin-1-yl)methanone] | 1.8 | 4.5 | 4.49 | 772 | 171.8 | 2.24 | 47 | 1.47
C[C@@H]1N=C(c2c(F)cccc2F)c2c(ccc(Cl)c2Cl)-n2nc(S(N)(=O)=O)nc21 [Example 69, (4S)-7,8-dichloro-6-(2,6-difluorophenyl)-4-methyl-4H-[1,2,4]triazolo[1,5-a][1,4]benzodiazepine-2-sulfonamide] | 0.77 | 19.2 | 19.2 | 1150 | 60.1 | 1.78 | 97 | 1.97
[2H]C([2H])([2H])NC(=O)c1nc2n(n1)-c1ccc(Cl)c(Cl)c1C(c1c(F)cccc1F)=N[C@H]2C [Example 20, (4S)-7,8-dichloro-6-(2,6-difluorophenyl)-4-methyl-N-(trideuteriomethyl)-4H-[1,2,4]triazolo[1,5-a][1,4]benzodiazepine-2-carboxamide] | 0.89 | 5.2 | 5.24 | 593 | 113.1 | 2.05 | 78 | 1.78
C[C@@H]1N=C(c2c(F)cccc2F)c2c(ccc(Cl)c2Cl)-n2nc(C(=O)N3CC4(CCCO4)C3)nc21 [Example 108, [(4S)-7,8-dichloro-6-(2,6-difluorophenyl)-4-methyl-4H-[1,2,4]triazolo[1,5-a][1,4]benzodiazepin-2-yl]-(5-oxa-2-azaspiro[3.4]octan-2-yl)methanone] | 2.59 | 3.9 | 3.92 | 688 | 175.8 | 2.24 | 46 | 1.46
C[C@@H]1N=C(c2ncccc2F)c2c(ccc(Cl)c2Cl)-n2nc(C(=O)N3CC4(CCCO4)C3)nc21 [Example 97, [(4S)-7,8-dichloro-6-(3-fluoro-2-pyridyl)-4-methyl-4H-[1,2,4]triazolo[1,5-a][1,4]benzodiazepin-2-yl]-(5-oxa-2-azaspiro[3.4]octan-2-yl)methanone] | 8.64 | 14.8 | 14.8 | 3590 | 242.0 | 2.38 | 95 | 1.95
C[C@@H]1N=C(c2c(F)cccc2F)c2c(ccc(C(F)(F)F)c2Cl)-n2ccnc21 [Example 150, (4S)-7-chloro-6-(2,6-difluorophenyl)-4-methyl-8-(trifluoromethyl)-4H-imidazo[1,2-a][1,4]benzodiazepine] | 1.33 | 7.3 | 7.3 | 758 | 103.2 | – | 70 | –
C[C@@H]1N=C(c2c(F)cccc2F)c2c(ccc(C(F)(F)F)c2Cl)-n2nc(NC(=O)N3C4CC3CS(=O)(=O)C4)nc21 (single isomer, unassigned) [Example 134] | 2.36 | 19.3 | 19.3 | 1480 | 76.7 | 1.88 | 101 | 2.01
C[C@@H]1N=C(c2c(F)cccc2F)c2c(ccc(C(F)(F)F)c2Cl)-n2nc(NC(=O)N3C4COCC3C4)nc21 (single isomer, unassigned) [Example 130] | 6.9 | 36.6 | 36.6 | 4190 | 114.5 | 2.06 | 116 | 2.16
[2H]C([2H])([2H])OC1CN(C(=O)c2nc3n(n2)-c2ccc(Cl)c(Cl)c2C(c2ncccc2F)=N[C@H]3C)C1 [Example 39, [(4S)-7,8-dichloro-6-(3-fluoro-2-pyridyl)-4-methyl-4H-[1,2,4]triazolo[1,5-a][1,4]benzodiazepin-2-yl]-[3-(trideuteriomethoxy)azetidin-1-yl]methanone] | 6.85 | 17.7 | 17.7 | 4200 | 237.9 | 2.38 | 89 | 1.89
Cc1cn2c(n1)[C@H](C)N=C(c1c(F)cccc1F)c1c-2ccc(C(F)(F)F)c1Cl [Example 148, (4S)-7-chloro-6-(2,6-difluorophenyl)-2,4-dimethyl-8-(trifluoromethyl)-4H-imidazo[1,2-a][1,4]benzodiazepine] | 2.1 | 10.2 | 10.2 | 866 | 84.7 | 1.93 | 73 | 1.73
